Source: paper PMC6152655, “Determination and Pharmacokinetic Study of Three Diterpenes in Rat Plasma by UHPLC-ESI-MS/MS after Oral Administration of Rosmarinus officinalis L. Extract” (Molecules : A Journal of Synthetic Chemistry and Natural …, 2017)
Like-named read-outs stand apart in the source and are kept apart here.

How the values were obtained:
[1] = Stability of the three diterpenes in rat plasma under different storage conditions; assay type: in vitro ADME; conditions: n = 6; for Stability (% RE) Post-Preparative: extracted samples, 12 h at 4 °C; for Stability (% RE) Long-Term / Stability (% RE) Short-Term / Stability (% RE) Freeze-Thaw: rat plasma; for Stability (% RE) Long-Term: 2 weeks at −20 °C; for Stability (% RE) Short-Term: room temperature 4 h; for Stability (% RE) Freeze-Thaw: three freeze (−20 °C)-thaw cycles
Protocol: The stability of the three diterpenes was assessed under various conditions (Table 4). […] Moreover, all the investigated compounds were stable for 2 weeks when kept frozen at −20 °C. The stability including cycles of freeze-thaw stability (three freeze at −20 °C and thaw cycles), room temperature stability (storage for 4 h at ambient temperature), long-term stability (storage for 2 weeks at −20 °C), post-preparation stability (storage for 12 h after sample preparation at 4 °C) were tested at LQC, MQC, HQC levels with six replicates at each level. The results were compared with those for freshly prepared QC samples and the percentage concentration deviation was calculated. The accuracy should be within ± 15% in freshly prepared samples. All the testing QC samples of stability were determined by using the calibration curve of freshly prepared standard samples.

[2] = Pharmacokinetic study in rats after oral administration of R. officinalis extract (UHPLC-ESI-MS/MS of plasma); assay type: in vivo, Sprague-Dawley (SD) rats; set-up: Cmax: unit: ng/mL; conditions: for Cmax / AUC(0-inf) / AUC(0-t) / Tmax / half-life: rat plasma, n = 6; for concentration at 0.5 h: plasma sample obtained at 0.5 h from a rat after oral administration of rosemary extract (Figure 2C)
Protocol: The validated method was successfully applied to pharmacokinetic studies of three diterpenes components after oral administration of rosemary at three different doses (0.25, 0.82, 2.45 g/kg). […] Therefore, we set low, medium and high doses in this study.
The main pharmacokinetic parameters of the analytes were calculated with DAS 2.0 (Shanghai, China) by non-compartmental analysis.
For the preparation of the extract, 100 g of dried leaves of R. officinalis were extracted under reflux with 1 L ethanol-water (80:20, v/v) for three times, 1 h for each time, and then filtrated. The combined filtrate was evaporated to dryness, and the residue was dissolved in water to get a concentration equivalent to 0.1 g/mL of the R. officinalis extract.
Male Sprague-Dawley (SD) rats (body weight 220 ± 50 g) were purchased and adapted under 65% RH, 23–27°C. […] Eighteen rats were randomly divided into low (0.24 g/kg), medium (0.82 g/kg), high (2.45 g/kg) dose groups. The SD rats were fasted for 12 h before experiment, had free access to water even during the experiment. The blood (0.25 mL) was collected from the orbital venous plexus at 0.08, 0.25, 0.50, 1, 1.5, 2, 3, 4, 6, 8, 12 and 24 h after oral administration of R. officinalis extract. The plasma was immediately acquired by centrifugation at 4 °C and stored frozen at −20 °C until analysis.
Before the experiment, the plasma samples stored in −20 °C were thawed naturally at room temperature. Using the optimized method, 50 μL of I.S. (2120 ng/mL), 100 μL of methanol and 100 μL of 1 mol/L HCl were added to 100 μL of plasma sample followed with vortex-mixed for 30 s. The mixed sample was extracted with 3 mL of ethyl acetate by being vortex-mixed for 1 min. The upper organic layer was removed and evaporated to dryness under a stream of nitrogen at 40 °C after centrifuging at 3800 rpm for 5 min. The residue was reconstituted with 100 μL of acetonitrile-water (40:60, v/v), and then vortex-mixed for 2 min and filtered by a 0.22 μm membrane. 10 μL of the subsequent filtrate were injected into the UHPLC-ESI-MS/MS system [20].
The maximum plasma concentration (Cmax) and the time of maximum plasma concentration (tmax) were observed directly from the measured data. The elimination rate constant (Ke) was calculated by linear regression of the terminal points in a semi-log plot of the plasma concentration against time. The elimination half-life (t1/2) was calculated using the formula t1/2 = 0.693/Ke. The area under plasma concentration-time curve (AUC0→t) to the last measurable plasma concentration (Ct) was estimated by using the linear trapezoidal rule. The area under the plasma concentration-time curve to time infinity (AUC0→∞) was calculated as AUC0→∞ = AUC0→t + Ct/Ke. Pharmacokinetic parameters of the analytes were calculated with DAS 2.0 (Shanghai, China) by non-compartmental analysis.

[3] = set-up: method as in PMID 19309757; conditions: rat, monomeric compound (purity ≥ 98%) instead of extract; cited from earlier work
[4] = high QC (25,800/3488/4080 ng/mL)
[5] = low QC (21.50/2.910/3.400 ng/mL)
[6] = medium QC (1075/145.3/170.0 ng/mL)
[7] = low QC (21.50/2.910/3.400 ng/mL carnosic acid/carnosol/rosmanol)
[8] = male, Sprague-Dawley, rat, plasma, po, 0.24 g/kg, oral R. officinalis extract 0.24 g/kg (low dose), read-out: Cmax
[9] = male, Sprague-Dawley, rat, plasma, po, 0.82 g/kg, oral R. officinalis extract 0.82 g/kg (medium dose), read-out: Cmax
[10] = male, Sprague-Dawley, rat, plasma, po, 2.45 g/kg, oral R. officinalis extract 2.45 g/kg (high dose), read-out: Cmax
[11] = male, Sprague-Dawley, oral R. officinalis extract 0.24 g/kg (low dose)
[12] = male, Sprague-Dawley, oral R. officinalis extract 0.82 g/kg (medium dose)
[13] = male, Sprague-Dawley, oral R. officinalis extract 2.45 g/kg (high dose)

Row | SMILES | Stability (% RE) Post-Preparative [1, 4] [% RE] | Stability (% RE) Post-Preparative [1, 5] [% RE] | Stability (% RE) Post-Preparative [1, 6] [% RE] | Stability (% RE) Long-Term [1, 4] [% RE] | Stability (% RE) Long-Term [1, 5] [% RE] | Stability (% RE) Long-Term [1, 6] [% RE] | Stability (% RE) Short-Term [1, 4] [% RE] | Stability (% RE) Short-Term [1, 5] [% RE] | Stability (% RE) Short-Term [1, 6] [% RE] | Stability (% RE) Freeze-Thaw [1, 4] [% RE] | Stability (% RE) Freeze-Thaw [1, 7] [% RE] | Stability (% RE) Freeze-Thaw [1, 6] [% RE] | Cmax [2, 8] [ng/mL] | Cmax [2, 9] [ng/mL] | Cmax [2, 10] [ng/mL] | concentration at 0.5 h ([2]; male, Sprague-Dawley) [ng/mL] | AUC(0-inf) [2, 11] [ng·h/mL] | AUC(0-t) [2, 11] [ng·h/mL] | Tmax [2, 11] [h] | half-life [2, 11] [h] | further results
1 | CC(C)c1cc2c(c(O)c1O)[C@@]1(C(=O)O)CCCC(C)(C)[C@@H]1CC2 [Carnosic acid] | 14.83 | 13.89 | 14.10 | 14.84 | 13.78 | 14.30 | 14.84 | 10.21 | 14.80 | 14.40 | 14.04 | 14.82 | 1210 ± 344 | 3960 ± 516 | 27500 | 27900 | 14900 | 9140 ± 1500 | 0.3 ± 0.11 | 8.02 ± 2.08 | AUC(0-inf) [2, 12]: 40000 ng·h/mL; AUC(0-t) [2, 12]: 28500 ng·h/mL; Tmax [2, 12]: 0.3 ± 0.11 h; half-life [2, 12]: 12.8 ± 5.14 h; AUC(0-inf) [2, 13]: 181000 ng·h/mL; AUC(0-t) [2, 13]: 146000 ng·h/mL; Tmax [2, 13]: 0.5 ± 0.31 h; half-life [2, 13]: 12.8 ± 1.23 h; Tmax [3]: 2.17 h
2 | CC(C)c1cc2c(c(O)c1O)[C@@]13CCCC(C)(C)[C@@H]1C[C@@H]2OC3=O [Carnosol] | 2.09 | 2.32 | 0.66 | −0.48 | 3.10 | 14.49 | −0.79 | 8.07 | −8.67 | 0.30 | 5.39 | 8.40 | 217 ± 53.1 | 413 ± 42.6 | 1480 ± 266 | 1830 | 1820 ± 327 | 1470 ± 190 | 0.4 ± 0.13 | 12.3 ± 2.36 | AUC(0-inf) [2, 12]: 7360 ± 2740 ng·h/mL; AUC(0-t) [2, 12]: 3190 ± 316 ng·h/mL; Tmax [2, 12]: 0.27 ± 0.15 h; half-life [2, 12]: 13.9 ± 6.95 h; AUC(0-inf) [2, 13]: 17400 ng·h/mL; AUC(0-t) [2, 13]: 14000 ng·h/mL; Tmax [2, 13]: 0.7 ± 0.45 h; half-life [2, 13]: 12.8 ± 3.15 h; Cmax ([2]; oral R. officinalis extract 0.24 g/kg (low dose)): 216.56 ± 53.09 ng/mL; Cmax ([2]; oral R. officinalis extract 0.82 g/kg (medium dose)): 413.34 ± 42.59 ng/mL
3 | CC(C)c1cc2c(c(O)c1O)[C@@]13CCCC(C)(C)[C@@H]1[C@H](OC3=O)[C@H]2O [Rosmanol] | 4.60 | −0.30 | −7.65 | 9.17 | 7.17 | −8.56 | 0.65 | 5.01 | −8.16 | −0.07 | 4.65 | −7.12 | 77.2 ± 10.5 | 188 ± 75.9 | 633 ± 118 | 568 | 552 ± 130 | 460 ± 54.9 | 0.25 | 8.88 ± 3.52 | AUC(0-inf) [2, 12]: 826 ± 138 ng·h/mL; AUC(0-t) [2, 12]: 678 ± 56.9 ng·h/mL; Tmax [2, 12]: 0.2 ± 0.18 h; half-life [2, 12]: 9.75 ± 2.44 h; AUC(0-inf) [2, 13]: 7980 ± 1650 ng·h/mL; AUC(0-t) [2, 13]: 5370 ± 927 ng·h/mL; Tmax [2, 13]: 0.55 ± 0.27 h; half-life [2, 13]: 15.4 ± 3.54 h; Cmax ([2]; oral R. officinalis extract 2.45 g/kg (high dose)): 633.41 ± 118.52 ng/mL
